Assay results as given in patent US9802960B2 (MILLENNIUM PHARMACEUTICALS, INC., priority 2014, dated 2017).

Target: Human VPS34 (Homo sapiens (Human), UniProt Q8NEB9)
Assay: Human VPS34 enzyme assay (Adapta TR-FRET)
Assay type: biochemical
Conditions: compound concentration 1.11 μM; read-out: Percent Inhibition

Sequence of Human VPS34 (Q8NEB9 whole entry): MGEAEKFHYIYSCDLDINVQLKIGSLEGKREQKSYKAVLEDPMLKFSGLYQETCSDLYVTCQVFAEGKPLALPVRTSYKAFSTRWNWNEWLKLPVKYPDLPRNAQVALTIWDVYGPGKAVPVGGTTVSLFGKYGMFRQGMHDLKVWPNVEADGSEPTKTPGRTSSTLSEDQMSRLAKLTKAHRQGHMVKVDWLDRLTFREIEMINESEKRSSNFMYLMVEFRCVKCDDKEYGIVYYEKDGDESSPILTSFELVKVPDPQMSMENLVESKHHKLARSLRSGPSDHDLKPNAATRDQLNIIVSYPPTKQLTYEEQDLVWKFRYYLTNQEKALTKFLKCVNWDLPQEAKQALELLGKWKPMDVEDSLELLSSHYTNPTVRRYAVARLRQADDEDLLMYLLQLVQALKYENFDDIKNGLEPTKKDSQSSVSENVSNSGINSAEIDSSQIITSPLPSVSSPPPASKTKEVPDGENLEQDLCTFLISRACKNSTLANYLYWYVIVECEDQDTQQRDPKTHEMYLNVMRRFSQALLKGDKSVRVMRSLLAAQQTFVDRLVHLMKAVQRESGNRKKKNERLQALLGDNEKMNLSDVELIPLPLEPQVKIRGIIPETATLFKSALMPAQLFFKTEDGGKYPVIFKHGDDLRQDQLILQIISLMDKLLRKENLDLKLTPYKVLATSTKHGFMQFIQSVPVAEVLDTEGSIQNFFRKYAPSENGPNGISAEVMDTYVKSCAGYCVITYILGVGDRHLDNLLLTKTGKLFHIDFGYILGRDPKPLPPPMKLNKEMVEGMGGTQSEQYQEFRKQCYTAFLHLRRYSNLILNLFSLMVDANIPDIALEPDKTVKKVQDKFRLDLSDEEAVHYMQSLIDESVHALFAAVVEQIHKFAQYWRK

Inhibition at 1.11 µM, 61%:
CC(=O)Nc1cc(-c2cncc(N)c2)ccn1 [Compound I-139, N-(5-amino-3,4′-bipyridin-2′-yl)acetamide]

Inhibition at 1.11 µM, 99%:
CC(=O)Nc1cc(-c2cnc3ncn(CC4CC4)c3c2)ccn1 [Compound I-135, N-{4-[1-(cyclopropylmethyl)-1H-imidazo[4,5-b]pyridin-6-yl]pyridin-2-yl}acetamide]

Inhibition at 1.11 µM, > 99%:
CC(=O)Nc1cc(-c2cnc(C)c(NS(=O)(=O)c3ccc(C)cc3Cl)c2)ccn1 [Compound I-128]
CC(=O)Nc1cc(-c2cnc(C)c(NS(=O)(=O)c3ccc(C)cc3F)c2)c(C)cn1 [Compound I-130, N-(5-{[(2-fluoro-4-methylphenyl)sulfonyl]amino}-5′,6-dimethyl-3,4′-bipyridin-2′-yl)acetamide]
CC(=O)Nc1cc(-c2cnc(C)c(NS(=O)(=O)c3ccc(C(C)(C)C)cc3)c2)ccn1 [Compound I-131, N-(5-{[(4-tert-butylphenyl)sulfonyl]amino}-6-methyl-3,4′-bipyridin-2′-yl)acetamide]
CNc1ncc(-c2ccnc(NC(C)=O)c2)cc1N1CCCS1(=O)=O [Compound I-132, N-[5-(1,1-dioxidoisothiazolidin-2-yl)-6-(methylamino)-3,4′-bipyridin-2′-yl]acetamide]
CC(=O)Nc1cc(-c2cnc(N)c(N(C)S(C)(=O)=O)c2)ccn1 [Compound I-133, N-{6-amino-5-[methyl(methylsulfonyl)amino]-3,4′-bipyridin-2′-yl}acetamide]
CC(=O)Nc1cc(-c2cnc(C)c(NS(=O)(=O)c3ccc(C(C)C)cc3)c2)ccn1 [Compound I-134, N-(5-{[(4-isopropylphenyl)sulfonyl]amino}-6-methyl-3,4′-bipyridin-2′-yl)acetamide]
CC(=O)Nc1cc(-c2cnc(N)c(C(=O)Nc3ccccc3Cl)c2)ccn1 [Compound I-136, 2′-acetamido-6-amino-N-(2-chlorophenyl)-3,4′-bipyridine-5-carboxamide]
CC(=O)Nc1cc(-c2cncc(S(=O)(=O)N(C)C)c2)ccn1 [Compound I-137, N-[5-(dimethylsulfamoyl)-3,4′-bipyridin-2′-yl]acetamide]
CC(=O)Nc1cc(-c2cnc(N)c(S(=O)(=O)Cc3ccc(F)cc3F)c2)ccn1 [Compound I-138, N-{6-amino-5-[(2,4-difluorobenzyl)sulfonyl]-3,4′-bipyridin-2′-yl}acetamide]
CC(=O)Nc1cc(-c2cnc3[nH]ccc3c2)ccn1 [Compound I-140, N-[4-(1H-pyrrolo[2,3-b]pyridin-5-yl)pyridin-2-yl]acetamide]
CNc1ncc(-c2ccnc(NC(C)=O)c2)cc1N(CC1CC1)S(C)(=O)=O [Compound I-141, N-{5-[(cyclopropylmethyl)(methylsulfonyl)amino]-6-(methylamino)-3,4′-bipyridin-2′-yl}acetamide]
COc1cc(C)ccc1S(=O)(=O)Nc1cc(-c2ccnc(NC(C)=O)c2)cnc1C [Compound I-142, N-(5-{[(2-methoxy-4-methylphenyl)sulfonyl]amino}-6-methyl-3,4′-bipyridin-2′-yl)acetamide]
CC(=O)Nc1cc(-c2cnc(C)c(NS(=O)(=O)c3cc(C(F)(F)F)ccc3F)c2)ccn1 [Compound I-143, N-[5-({[2-fluoro-5-(trifluoromethyl)phenyl]sulfonyl}amino)-6-methyl-3,4′-bipyridin-2′-yl]acetamide]
CC(=O)Nc1cc(-c2cnc(C)c(NS(=O)(=O)c3ccccc3F)c2)ccn1 [Compound I-144, N-(5-{[(2-fluorophenyl)sulfonyl]amino}-6-methyl-3,4′-bipyridin-2′-yl)acetamide]
CCOCCS(=O)(=O)c1cc(-c2ccnc(NC(C)=O)c2)cnc1N [Compound I-145, N-{6-amino-5-[(2-ethoxyethyl)sulfonyl]-3,4′-bipyridin-2′-yl}acetamide]
COC(=O)Nc1cc(-c2cnc(C)c(N3CCCS3(=O)=O)c2)ccn1 [Compound I-146, methyl[5-(1,1-dioxidoisothiazolidin-2-yl)-6-methyl-3,4′-bipyridin-2′-yl]carbamate]
CNc1ncc(-c2ccnc(NC(C)=O)c2)cc1N(C)S(C)(=O)=O [Compound I-147, N-{6-(methylamino)-5-[methyl(methylsulfonyl)amino]-3,4′-bipyridin-2′-yl}acetamide]
CC(=O)Nc1cc(-c2cnc(N)c(S(=O)(=O)NCCc3ccccc3)c2)ccn1 [Compound I-148, N-{6-amino-5-[(2-phenylethyl)sulfamoyl]-3,4′-bipyridin-2′-yl}acetamide]
CC(=O)Nc1cc(-c2cnc(N)c(C(=O)N(C)C)c2)ccn1 [Compound I-149, 2′-acetamido-6-amino-N,N-dimethyl-3,4′-bipyridine-5-carboxamide]
CC(=O)Nc1cc(-c2cnc(C)c(NS(=O)(=O)c3c(F)cccc3F)c2)ccn1 [Compound I-150, N-(5-{[(2,6-difluorophenyl)sulfonyl]amino}-6-methyl-3,4′-bipyridin-2′-yl)acetamide]
CC(=O)Nc1cc(-c2cnc3c(c2)c(S(=O)(=O)N2CCCC2)cn3C)ccn1 [Compound I-151, N-{4-[1-methyl-3-(pyrrolidin-1-ylsulfonyl)-1H-pyrrolo[2,3-b]pyridin-5-yl]pyridin-2-yl}acetamide]
CC(=O)Nc1cc(-c2cnc(N)c(C(=O)N3CCOCC3)c2)ccn1 [Compound I-152, N-[6-amino-5-(morpholin-4-ylcarbonyl)-3,4′-bipyridin-2′-yl]acetamide]
CC(=O)Nc1cc(-c2cnc(Cl)c(NS(=O)(=O)c3ccc(F)cc3F)c2C)ccn1 [Compound I-153, N-(6-chloro-5-{[(2,4-difluorophenyl)sulfonyl]amino}-4-methyl-3,4′-bipyridin-2′-yl)acetamide]
CC(=O)Nc1cc(-c2cnc(C)c(NS(=O)(=O)c3ccc(Cl)cc3)c2)ccn1 [Compound I-154, N-(5-{[(4-chlorophenyl)sulfonyl]amino}-6-methyl-3,4′-bipyridin-2′-yl)acetamide]
CC(=O)Nc1cc(-c2cnc(C)c(NS(=O)(=O)c3cccc(F)c3)c2)ccn1 [Compound I-155, N-(5-{[(3-fluorophenyl)sulfonyl]amino}-6-methyl-3,4′-bipyridin-2′-yl)acetamide]
CC(=O)Nc1cc(-c2cnc(N)c(S(=O)(=O)N3CCCCC3)c2)ccn1 [Compound I-156, N-[6-amino-5-(piperidin-1-ylsulfonyl)-3,4′-bipyridin-2′-yl]acetamide]
CC(=O)Nc1cc(-c2cnc(N)c(C(=O)N3CC[C@@H](F)C3)c2)ccn1 [Compound I-157, N-(6-amino-5-{[(3R)-3-fluoropyrrolidin-1-yl]carbonyl}-3,4′-bipyridin-2′-yl)acetamide]
CC(=O)Nc1cc(-c2cnc3[nH]cc(S(=O)(=O)N4CCCC4)c3c2)ccn1 [Compound I-158, N-{4-[3-(pyrrolidin-1-ylsulfonyl)-1H-pyrrolo[2,3-b]pyridin-5-yl]pyridin-2-yl}acetamide]
COc1cc(F)c(S(=O)(=O)Nc2cc(-c3ccnc(NC(C)=O)c3)cnc2C)cc1F [Compound I-159, N-(5-{[(2,5-difluoro-4-methoxyphenyl)sulfonyl]amino}-6-methyl-3,4′-bipyridin-2′-yl)acetamide]
CNc1ncc(-c2ccnc(NC(C)=O)c2)cc1C(=O)NC12CC(C1)C2 [Compound I-160, 2′-acetamido-N-(bicyclo[1.1.1]pent-1-yl)-6-(methylamino)-3,4′-bipyridine-5-carboxamide]
CC(=O)Nc1cc(-c2cnc(C)c(NS(=O)(=O)c3ccc(F)cc3F)c2)c(F)cn1 [Compound I-161, N-(5-{[(2,4-difluorophenyl)sulfonyl]amino}-5′-fluoro-6-methyl-3,4′-bipyridin-2′-yl)acetamide]
CC(=O)Nc1cc(-c2cnc(N(C)C)c(C(=O)N(C)C)c2)ccn1 [Compound I-162, 2′-acetamido-6-(dimethylamino)-N,N-dimethyl-3,4′-bipyridine-5-carboxamide]
COc1ccc(S(=O)(=O)Nc2cc(-c3ccnc(NC(C)=O)c3)cnc2C)c(F)c1 [Compound I-163, N-(5-{[(2-fluoro-4-methoxyphenyl)sulfonyl]amino}-6-methyl-3,4′-bipyridin-2′-yl)acetamide]
CC(=O)Nc1cc(-c2cnc(F)c(NS(=O)(=O)c3ccc(F)cc3F)c2)ccn1 [Compound I-164, N-(5-{[(2,4-difluorophenyl)sulfonyl]amino}-6-fluoro-3,4′-bipyridin-2′-yl)acetamide]
COc1ccc(S(=O)(=O)Nc2cc(-c3ccnc(NC(C)=O)c3)cnc2C)cc1 [Compound I-165, N-(5-{[(4-methoxyphenyl)sulfonyl]amino}-6-methyl-3,4′-bipyridin-2′-yl)acetamide]
CN(C)S(=O)(=O)c1cc(-c2ccnc(Nc3ncco3)c2)cnc1N [Compound I-166, 6-amino-N,N-dimethyl-2′-(1,3-oxazol-2-ylamino)-3,4′-bipyridine-5-sulfonamide]
CC(=O)Nc1cc(-c2cnc(C)c(NS(C)(=O)=O)c2)ccn1 [Compound I-167, N-{6-methyl-5-[(methylsulfonyl)amino]-3,4′-bipyridin-2′-yl}acetamide]
CC(=O)Nc1cc(-c2cnc(C)c(NS(=O)(=O)c3cccc(C(F)(F)F)c3)c2)ccn1 [Compound I-168, N-[6-methyl-5-({[3-(trifluoromethyl)phenyl]sulfonyl}amino)-3,4′-bipyridin-2′-yl]acetamide]
CC(=O)Nc1cc(-c2cnc(N)c(C(=O)NC3CC3)c2)ccn1 [Compound I-169, 2′-acetamido-6-amino-N-cyclopropyl-3,4′-bipyridine-5-carboxamide]
